Experimental data taken from ChEMBL document CHEMBL1201862, “PubChem BioAssay data set” (2004).
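Following 48 hours of exposure in 96-well plates, responses at five concentrations were used to interpolate endpoints linearly. At the GI50, growth is halved.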 Active and inactive are the calls of the source. Cut-off read from the data, not from the text of the source: active = GI50 up to about 1.1 µM and inactive = higher.

Experiments:
Test in all cases: NCI anticancer screen, dose series, 48 h
UO-31 = tested on: UO-31
HT-29 = tested on: HT-29
SK-MEL-28 = tested on: SK-MEL-28
BT-549 = tested on: BT-549
SF-295 = tested on: SF-295
786-0 = tested on: 786-0
PC-3 = tested on: PC-3
TK-10 = tested on: TK-10
OVCAR-3 = tested on: OVCAR-3
NCI-H23 = tested on: NCI-H23
UACC-257 = tested on: UACC-257
HCC 2998 = tested on: HCC 2998
HCT-15 = tested on: HCT-15
SK-MEL-5 = tested on: SK-MEL-5
MDA-MB-231 = tested on: MDA-MB-231
HCT-116 = tested on: HCT-116
SK-OV-3 = tested on: SK-OV-3
EKVX = tested on: EKVX
M14 = tested on: M14
NCI/ADR-RES = tested on: NCI/ADR-RES
Hs-578T = tested on: Hs-578T
A498 = tested on: A498
SK-MEL-2 = tested on: SK-MEL-2
OVCAR-4 = tested on: OVCAR-4
OVCAR-5 = tested on: OVCAR-5
SN12C = tested on: SN12C
LOX IMVI = tested on: LOX IMVI
SF-268 = tested on: SF-268
MDA-MB-435 = tested on: MDA-MB-435
SNB-75 = tested on: SNB-75
ACHN = tested on: ACHN
NCI-H460 = tested on: NCI-H460
OVCAR-8 = tested on: OVCAR-8
T47D = tested on: T47D
SF-539 = tested on: SF-539
HOP-62 = tested on: HOP-62
NCI-H522 = tested on: NCI-H522
COLO 205 = tested on: COLO 205
KM12 = tested on: KM12
A549 = tested on: A549
SW-620 = tested on: SW-620
SNB-19 = tested on: SNB-19
CAKI-1 = tested on: CAKI-1
U-251 = tested on: U-251
RXF 393 = tested on: RXF 393
IGROV-1 = tested on: IGROV-1
MCF7 = tested on: MCF7
RPMI-8226 = tested on: RPMI-8226
NCI-H226 = tested on: NCI-H226
K562 = tested on: K562
Malme-3M = tested on: Malme-3M
CCRF-CEM = tested on: CCRF-CEM
MDA-N = tested on: MDA-N

O=C1C(O)=C(Cc2ccccc2)C(=O)c2ccccc21
GI50 (UO-31): 41.6 µM (inactive)
GI50 (HT-29): 48.9 µM (inactive)
GI50 (SK-MEL-28): 42.3 µM (inactive)
GI50 (BT-549): 70.8 µM (inactive)
GI50 (SF-295): 45.3 µM (inactive)
GI50 (786-0): 61.7 µM (inactive)
GI50 (PC-3): 54.5 µM (inactive)
GI50 (TK-10): > 100 µM (inactive)
GI50 (OVCAR-3): 27.7 µM (inactive)
GI50 (NCI-H23): 49.1 µM (inactive)
GI50 (UACC-257): 46.8 µM (inactive)
GI50 (HCC 2998): 83.2 µM (inactive)
GI50 (HCT-15): 35.6 µM
GI50 (SK-MEL-5): 18.7 µM (inactive)
GI50 (MDA-MB-231): 91.2 µM (inactive)
GI50 (HCT-116): 50.6 µM (inactive)
GI50 (SK-OV-3): 63.5 µM (inactive)
GI50 (EKVX): 55.1 µM (inactive)
GI50 (M14): 34.8 µM (inactive)
GI50 (NCI/ADR-RES): 49.5 µM (inactive)
GI50 (Hs-578T): 37.3 µM (inactive)
GI50 (A498): 51.6 µM (inactive)
GI50 (SK-MEL-2): 42 µM (inactive)
GI50 (OVCAR-4): 46.6 µM (inactive)
GI50 (OVCAR-5): > 100 µM (inactive)

Cc1cc2[nH]c3c(C#N)c(-c4ccccc4)c(/N=N/c4cccc(C(F)(F)F)c4)c(=O)n3c2cc1C
GI50 (SN12C): 27.9 µM (inactive)
GI50 (UO-31): 31.3 µM (inactive)
GI50 (LOX IMVI): 49.1 µM (inactive)
GI50 (SF-268): 32.6 µM (inactive)
GI50 (SK-MEL-28): 39 µM (inactive)
GI50 (BT-549): 44.2 µM (inactive)
GI50 (MDA-MB-435): 38.8 µM (inactive)
GI50 (SNB-75): > 100 µM (inactive)
GI50 (ACHN): 37.5 µM (inactive)
GI50 (SF-295): 42.6 µM (inactive)
GI50 (786-0): 35.8 µM (inactive)
GI50 (NCI-H460): 21.4 µM (inactive)
GI50 (OVCAR-8): 26.1 µM (inactive)
GI50 (PC-3): 32.2 µM (inactive)
GI50 (T47D): 20.3 µM (inactive)
GI50 (TK-10): 50.4 µM (inactive)
GI50 (SF-539): 97.5 µM (inactive)
GI50 (OVCAR-3): 8.55 µM (inactive)
GI50 (NCI-H23): 14.6 µM (inactive)
GI50 (HOP-62): > 100 µM (inactive)
GI50 (NCI-H522): 16 µM (inactive)
GI50 (COLO 205): 42.2 µM (inactive)
GI50 (UACC-257): 26.8 µM (inactive)
GI50 (KM12): 31.6 µM (inactive)
GI50 (A549): 25.3 µM (inactive)
GI50 (HCC 2998): 59.2 µM (inactive)
GI50 (SW-620): 35.8 µM (inactive)
GI50 (HCT-15): 37 µM
GI50 (SK-MEL-5): 15.7 µM (inactive)
GI50 (MDA-MB-231): 85.5 µM (inactive)
GI50 (SNB-19): 35.2 µM (inactive)
GI50 (CAKI-1): 32 µM (inactive)
GI50 (HCT-116): 13.7 µM (inactive)
GI50 (U-251): 39.3 µM (inactive)
GI50 (SK-OV-3): 32.4 µM (inactive)
GI50 (RXF 393): 54.5 µM (inactive)
GI50 (EKVX): 23.4 µM (inactive)
GI50 (IGROV-1): 21.8 µM (inactive)
GI50 (MCF7): 50.4 µM (inactive)
GI50 (RPMI-8226): 5.35 µM (inactive)
GI50 (M14): 34.4 µM (inactive)
GI50 (NCI-H226): 25.2 µM (inactive)
GI50 (K562): 0.0382 µM (active)
GI50 (NCI/ADR-RES): 34.3 µM (inactive)
GI50 (Malme-3M): 42.9 µM (inactive)
GI50 (CCRF-CEM): 5.3 µM (inactive)
GI50 (A498): 88.5 µM (inactive)
GI50 (SK-MEL-2): 58.1 µM (inactive)
GI50 (OVCAR-4): 39.5 µM (inactive)
GI50 (OVCAR-5): > 100 µM (inactive)
GI50 (MDA-N): 28.3 µM (inactive)
